Structures can show the parent of a compound that is named as a salt. Where two headings read alike, the source gives them in different places.

For one data set, the target named is T1, FTH ferritin (Homo sapiens, UniProt P02794).
T1 construct: made in house; host or cells: Escherichia coli BL21 (DE3), plasmid pET20-FTH
Kind of data set: one-step process incorporation of small molecule agents into FTH ferritin. The class given is physicochemical. The settings on record: pH of buffer giving the largest amount of incorporation within ferritin. The method, then:
All of the reactions were performed in 0.1 mL volume. […] The absorbances were measured using spectrophotometer (DU-800, Beckman Coulter Inc.) for these solutions, and the concentration of contained protein was determined using the protein assay CBB solution (Nacalai Tesque, Inc.) as well as bovine albumin as a standard. Absorbances at 280 nm and 480 nm were measured for Rhodamine B and Congo Red. […] Then, after the absorbances were calibrated based on the absorbances that were derived from the proteins and presumed by the amount of contained protein quantified using the protein assay CBB solution, the concentrations of small molecule agents were determined based on the calibration curves obtained by the absorbances of the molecules. […] As a result, the one-step process enabled incorporating also the small molecule agents with different physical properties such as molecular weight and pKa simply and easily.

The next data set relates to FTH-BC-TBP ferritin. The experiment in a line: one-step incorporation of DOX into mutant ferritin FTH-BC-TBP. Format: physicochemical, human. The settings on record: pH 8, 50° C., 60 minutes, DOX 0.3 mg/L. The method, then:
Total synthesis was carried out for a DNA encoding a human-derived ferritin H chain (FTH-BC-TBP) monomer in which a titanium recognizing peptide (minTBP1: RKLPDA (SEQ ID NO: 7)) was inserted for fusion at a flexible linker region between second and third α-helices counted from an N-terminus of a ferritin monomer comprising six α-helices. PCR was carried out using the synthesized DNA as a template as well as the following primers: 5′-[…]-3′ (SEQ ID NO: 8) and 5′-[…]-3′ (SEQ ID NO: 9). PCR was carried out using pET20 (Merck KGaA) as a template as well as the following primers: 5′-[…]-3′ (SEQ ID NO: 10) and 5′-[…]-3′ (SEQ ID NO: 11). […]
(§1) DOX was mixed with 1 mL of 50 mM Tris-HCl buffer (pH 8) that contains each mutate ferritin at a final concentration of 1 mg/mL, to achieve a final concentration of 0.3 mg/L, and then the resulting solutions were left to stand at 50° C. for 60 minutes. […] The concentration of contained protein was determined using the protein assay CBB solution (Nacalai Tesque, Inc.) as well as bovine albumin as a standard. The DOX concentration was determined based on analysis of the absorbance at 480 nm.

A further data set concerns the target T2, FTHc ferritin (Homo sapiens, UniProt P02794).
T2 construct: pET20-FTH carrying a DNA encoding a human-derived ferritin H chain monomer as a template; single cysteine residue (C) appended; made in house; host or cells: Escherichia coli BL21 (DE3), plasmid pET20-FTHc
The experiment in a line: one-step incorporation of DOX into mutant ferritin FTHc. The class given is physicochemical. The following applies: pH 8, 50° C., 60 minutes, DOX 0.3 mg/L. How it is done: PCR was carried out using pET20-FTH carrying a DNA encoding a human-derived ferritin H chain monomer as a template as well as the following primers: 5′-[…]-3′ (SEQ ID NO: 12) and 5′-[…]-3′ (SEQ ID NO: 13). The resulting PCR products were purified using Wizard DNA Clean-Up System (Promega Corporation), and then treated with restriction enzymes, Dpnl and BamHI (Takara Bio Inc.) for self-ligation in order to construct an expression plasmid (pET20-FTHc) carrying a gene encoding FTHc monomer with a cysteine added to the C-terminus. Ferritin including FTHc monomers is referred to as FTHc ferritin, as appropriate.
as §1, with “minutes. After the standing and centrifuging (at 15,000 rpm for one minute), the supernatant was injected into the desalting column PD-10 (Sephadex G-25 filled product, GE Healthcare Inc.) equilibrated with 10 mM Tris-HCl buffer (pH 8) to separate the protein from a reagent that was not encapsulated.” for “minutes.”

The next data set deals with T3, FTL ferritin (Homo sapiens, UniProt P02792).
T3 construct: made in house; host or cells: Escherichia coli BL21 (DE3), plasmid pET20-FTL
Kind of data set: one-step incorporation of DOX into FTL ferritin. The following applies: pH 8, 50° C., 60 minutes, DOX 0.3 mg/L. The class given is physicochemical. How it is done: The incorporation of the reagent into L chain reagent was carried out using the one-step process. Total synthesis was carried out for a DNA encoding a human-derived ferritin L chain (FTL (SEQ ID NO: 2)) monomer. PCR was carried out using the synthesized DNA as a template as well as the following primers: 5′-[…]-3′ (SEQ ID NO: 234) and 5′-[…]-3′ (SEQ ID NO: 235). PCR was carried out using pET20 (Merck KGaA) as a template as well as the following primers: 5′-[…]-3′ (SEQ ID NO: 5) and 5′-[…]-3′ (SEQ ID NO: 6). The resulting PCR products were purified using Wizard DNA Clean-Up System (Promega Corporation), and then subjected to In-Fusion enzyme treatment at 50° C. for 15 minutes using In-Fusion HD Cloning Kit (Takara Bio Inc.) to construct an expression plasmid (pET20-FTL) carrying a gene encoding FTL monomer.
DOX was mixed with 1 mL of 50 mM Tris-HCl buffer (pH 8) that contains each mutate FTL ferritin at a final concentration of 1 mg/mL, to achieve a final concentration of 0.3 mg/L, and then the resulting solutions were left to stand at 50° C. for 60 minutes. […] The concentration of contained protein was determined using the protein assay CBB solution (Nacalai Tesque, Inc.) as well as bovine albumin as a standard. The DOX concentration was determined based on analysis of the absorbance at 480 nm.

In a further data set the test system is ferritin. The settings on record: cited from earlier work.

T1 sequence (P02794 whole entry): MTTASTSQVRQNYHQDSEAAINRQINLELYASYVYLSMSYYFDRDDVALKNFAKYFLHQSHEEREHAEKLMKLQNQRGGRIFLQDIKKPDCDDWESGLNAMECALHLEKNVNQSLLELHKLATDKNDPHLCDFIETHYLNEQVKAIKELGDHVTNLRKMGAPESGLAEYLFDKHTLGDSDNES
T3 sequence (P02792 whole entry): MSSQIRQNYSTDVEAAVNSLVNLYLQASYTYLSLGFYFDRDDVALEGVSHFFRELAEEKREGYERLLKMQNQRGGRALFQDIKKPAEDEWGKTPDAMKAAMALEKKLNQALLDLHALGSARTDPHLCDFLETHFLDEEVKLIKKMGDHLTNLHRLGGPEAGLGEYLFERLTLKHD
T2 sequence (P02794 with tags, fused parts or gaps): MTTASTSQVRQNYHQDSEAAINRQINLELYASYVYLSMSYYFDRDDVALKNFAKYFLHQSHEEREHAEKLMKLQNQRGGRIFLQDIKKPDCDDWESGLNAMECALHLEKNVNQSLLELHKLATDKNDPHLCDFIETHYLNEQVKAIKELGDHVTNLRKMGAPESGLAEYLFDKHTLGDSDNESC

`COc1cccc2c1C(=O)c1c(O)c3c(c(O)c1C2=O)C[C@@](O)(C(=O)CO)C[C@@H]3OC1CC(N)C(O)C(C)O1` (some centres unmarked) [DOX, Doxorubicin hydrochloride]: the “Optimal pH in reaction” value on FTH ferritin turned out to be 9. Besides, the “incorporation efficiency of the reagent” value with FTH-BC-TBP ferritin is 6.5 % (wt); at FTHc ferritin it was 8.6 % (wt); at FTL ferritin, 7.0 % (wt). Also, the “doxorubicin molecules encapsulated in ferritin” value was “approximately 33 molecules” with ferritin (denaturing with urea and refolding); “approximately 28 molecules” in the data set on ferritin (disassembly at pH 2, reassembly at pH 7-9); 10-20 molecules with ferritin (high pressure (200-800 MPa) for 6-20 hours); 30-90 molecules in the data set on ferritin (modified ferritin, pH 2 by addition of HCl).

Source of the values: patent US20210253651A1, “METHOD FOR PRODUCING ORGANIC COMPOUND-ENCAPSULATING FERRITIN” (Ajinomoto Co., Inc., priority 2018, published 2021).
